In patent US10301263B2, “Anticonvulsant compound” (Royal Holloway and Bedford New College, priority 2014, dated 2019):

What was measured:
[1] = biological target: T1, AMPA receptor GluA2/3 (Homo sapiens, UniProt P42262+P42263); experiment: Electrophysiology of Xenopus laevis oocytes expressing GluA2/3; type: cell-based; conditions: for inhibition of AMPA receptors (subunit GluA2/3) compared to decanoic acid: dose curve vs decanoic acid; for reduction of AMPA-R generated current in comparison to the control / reduction of AMPA-R generated current in comparison to decanoic acid / reduction of AMPA-R generated current in comparison to 4-BCCA: GluA2/3, 1 mM; for reduction of AMPA-R generated current in comparison to the control: P<0.05 for #175, #177, P<0.001 for the others; for reduction of AMPA-R generated current in comparison to decanoic acid: P<0.01 for #181, #182, #184, P<0.001 for #176, #185; for reduction of AMPA-R generated current in comparison to 4-BCCA: P<0.05 for #181, #184, P<0.01 for #182, P<0.001 for #176, #185
T1 construct: expressed in transfected cells; host or cells: Xenopus laevis oocytes injected with cRNA
Experimental: (§1) The AMPA receptor (flip isoform) cDNAs inserted in a SP6 polymerase expression vector (pSP6T) were a generous gift from Prof Ralf Schoepfer (NPP, UCL). RNA was transcribed in vitro from Mlu I linearized transcripts using the SP6 Promega RiboMax RNA synthesis kit (Madison, Wis.) according to manufacturer's protocols except for the addition of 0.75 mM capping nucleotide m7G(5′)ppp(5′)G (Promega, Madison, Wis.) and 1.6 mM GTP. cRNA concentrations and integrity were estimated by the intensity of fluorescence bands in RNA denaturating gels. AMPA receptor cRNAs were mixed in a nominal 1:1 ratio and approximately 5 ng was injected per oocyte.
Xenopus laevis oocytes were purchased from the European Xenopus Resource Centre, University of Portsmouth. Stage V to VI oocytes were mechanically dissected and then subjected to gentle shaking for approximately 30-50 min at room temperature with modified Barth's solution (in mM): NaCl 88, KCl 1, NaHCO3 2.4, MgCl2 0.82, CaCl2 0.77, Tris-Cl 15, adjusted to pH 7.4 with NaOH (Sigma-Aldrich, UK), supplemented with 50 IU/ml penicillin and 50 μg/ml streptomycin (Invitrogen, UK) and 50 μg/ml tetracycline (Sigma-Aldrich, UK) and 1% collagenase (type 1A). Healthy oocytes were manually defolliculated and the injections of cRNA for homomeric subunits alone (GluA1), or heteromeric mixtures of two subunits together (GluA2/GluA3) were made using an automated Drummond Nanoinject II injector (Broomall, Pa.). The oocytes were then incubated at 17° C. in modified Barth's solution for at least 48 hours before use in electrophysiological recordings.
Experiments were performed at room temperature (approximately 21-23° C.). An oocyte was placed in a recording chamber (0.3-0.5 ml volume) and perfused with ND96 solution (96 mM NaCl, 2 mM KCl, 1.8 mM CaCl2, 1 mM MgCl2, 5 mM HEPES, with pH adjusted to 7.5). Current and voltage electrodes were filled with 300 mM KCl and made from thin-walled borosilicate glass (GC150TF-7.5, Harvard Apparatus, Kent, UK) using a PC-10 electrode puller (Narashige Instruments, Japan) and had resistances of 0.5-2 MΩ. Oocytes were voltage-clamped to a holding potential of −50 mV or −60 mV using a Turbo TEC-03 amplifier (npi electronics, Tamm, Germany). Compounds were dissolved in distilled water or DMSO and dissolved in bathing solution to achieve their final concentrations during experiments, and were applied under gravity flow during the experiment by using a multi-valve perfusion system (VC3-8C, ALA Scientific Instruments, Farmingdale, N.Y.). The bath solutions were perfused at a rate of 10 ml/min. Recordings were filtered at 20 Hz and digitized at 100 Hz (Digidata 1322A, Molecular Devices, Sunnyvale, Calif.) before recording to computer hard disk. Data acquisition was performed using the Windows PC based programme, WinEDR v3.0.6 (John Dempster, University of Strathclyde, UK).
The data from the electrophysiology experiments were analyzed using GraphPad Prism software (GraphPad software, San Diego Calif., USA) and SPSS (IBM United Kingdom Limited). Statistical analysis was performed using ANOVA with Dunnett's or Tukey post hoc test, pair t-test or un-pair t-test. For the behavior experiment, the nonparametric test, Mann-Whitney test were used. Differences were considered as significant at P<0.05. […]

[2] = biological target: T2, AMPA receptor GluA1/2 (Homo sapiens, UniProt P42261+P42262); experiment: Electrophysiology of Xenopus laevis oocytes expressing GluA1/2; type: cell-based; conditions: IC50 comparison, FIG. 2C
T2 construct: expressed in transfected cells; host or cells: Xenopus laevis oocytes injected with cRNA
Experimental: as §1
Xenopus laevis oocytes were purchased from the European Xenopus Resource Centre, University of Portsmouth. Stage V to VI oocytes were mechanically dissected and then subjected to gentle shaking for approximately 30-50 min at room temperature with modified Barth's solution (in mM): NaCl 88, KCl 1, NaHCO3 2.4, MgCl2 0.82, CaCl2 0.77, Tris-Cl 15, adjusted to pH 7.4 with NaOH (Sigma-Aldrich, UK), supplemented with 50 IU/ml penicillin and 50 μg/ml streptomycin (Invitrogen, UK) and 50 μg/ml tetracycline (Sigma-Aldrich, UK) and 1% collagenase (type 1A). […]
The data from the electrophysiology experiments were analyzed using GraphPad Prism software (GraphPad software, San Diego Calif., USA) and SPSS (IBM United Kingdom Limited). […]

T1 sequence (P42262 22-883 isoform P42262-2 limits assumed): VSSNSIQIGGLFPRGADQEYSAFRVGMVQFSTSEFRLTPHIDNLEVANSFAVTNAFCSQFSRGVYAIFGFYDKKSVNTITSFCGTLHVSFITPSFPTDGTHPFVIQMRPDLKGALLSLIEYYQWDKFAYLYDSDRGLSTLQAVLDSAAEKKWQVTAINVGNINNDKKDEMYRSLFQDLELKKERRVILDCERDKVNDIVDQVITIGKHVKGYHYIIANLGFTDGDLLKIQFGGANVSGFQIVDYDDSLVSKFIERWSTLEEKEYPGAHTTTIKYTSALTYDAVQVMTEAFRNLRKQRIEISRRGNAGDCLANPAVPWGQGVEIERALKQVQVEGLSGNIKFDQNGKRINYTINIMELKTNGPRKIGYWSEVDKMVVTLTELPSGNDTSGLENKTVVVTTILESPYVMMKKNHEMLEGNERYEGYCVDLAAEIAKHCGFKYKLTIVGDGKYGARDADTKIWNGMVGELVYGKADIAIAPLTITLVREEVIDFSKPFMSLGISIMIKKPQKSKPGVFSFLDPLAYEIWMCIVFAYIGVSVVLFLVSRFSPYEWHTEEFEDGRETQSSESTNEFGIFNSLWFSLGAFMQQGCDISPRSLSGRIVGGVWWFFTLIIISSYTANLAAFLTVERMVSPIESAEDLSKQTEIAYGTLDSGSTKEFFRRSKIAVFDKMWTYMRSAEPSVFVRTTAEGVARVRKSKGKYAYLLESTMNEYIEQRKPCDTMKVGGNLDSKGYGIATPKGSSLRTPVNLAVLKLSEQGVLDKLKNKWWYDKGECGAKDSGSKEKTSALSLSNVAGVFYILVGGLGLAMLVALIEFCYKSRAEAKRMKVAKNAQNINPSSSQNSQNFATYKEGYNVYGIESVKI
T1 sequence (P42263 29-894 isoform P42263-2 limits assumed): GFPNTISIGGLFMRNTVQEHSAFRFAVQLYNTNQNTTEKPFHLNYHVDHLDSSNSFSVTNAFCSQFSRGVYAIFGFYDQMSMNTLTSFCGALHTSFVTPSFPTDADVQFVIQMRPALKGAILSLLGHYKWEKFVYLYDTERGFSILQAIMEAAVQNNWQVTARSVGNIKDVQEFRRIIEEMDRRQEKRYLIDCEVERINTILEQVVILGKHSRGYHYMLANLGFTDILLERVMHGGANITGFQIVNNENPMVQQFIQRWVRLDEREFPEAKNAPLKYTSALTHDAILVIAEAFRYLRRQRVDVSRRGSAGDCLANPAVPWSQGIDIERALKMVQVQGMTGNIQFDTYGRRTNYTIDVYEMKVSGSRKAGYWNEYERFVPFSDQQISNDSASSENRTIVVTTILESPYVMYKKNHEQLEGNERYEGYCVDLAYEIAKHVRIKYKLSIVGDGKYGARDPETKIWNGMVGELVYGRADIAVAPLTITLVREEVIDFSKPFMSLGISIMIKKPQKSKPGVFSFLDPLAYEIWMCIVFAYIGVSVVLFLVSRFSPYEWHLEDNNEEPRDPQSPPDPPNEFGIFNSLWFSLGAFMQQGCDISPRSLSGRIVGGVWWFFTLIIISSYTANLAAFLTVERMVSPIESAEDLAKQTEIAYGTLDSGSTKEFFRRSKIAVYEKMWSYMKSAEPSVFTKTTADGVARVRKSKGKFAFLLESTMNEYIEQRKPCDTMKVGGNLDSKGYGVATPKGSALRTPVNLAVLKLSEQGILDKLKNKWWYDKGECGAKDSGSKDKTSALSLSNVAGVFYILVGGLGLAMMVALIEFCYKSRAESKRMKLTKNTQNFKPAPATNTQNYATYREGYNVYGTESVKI
T2 sequence (P42261 19-906 isoform P42261-2 limits assumed): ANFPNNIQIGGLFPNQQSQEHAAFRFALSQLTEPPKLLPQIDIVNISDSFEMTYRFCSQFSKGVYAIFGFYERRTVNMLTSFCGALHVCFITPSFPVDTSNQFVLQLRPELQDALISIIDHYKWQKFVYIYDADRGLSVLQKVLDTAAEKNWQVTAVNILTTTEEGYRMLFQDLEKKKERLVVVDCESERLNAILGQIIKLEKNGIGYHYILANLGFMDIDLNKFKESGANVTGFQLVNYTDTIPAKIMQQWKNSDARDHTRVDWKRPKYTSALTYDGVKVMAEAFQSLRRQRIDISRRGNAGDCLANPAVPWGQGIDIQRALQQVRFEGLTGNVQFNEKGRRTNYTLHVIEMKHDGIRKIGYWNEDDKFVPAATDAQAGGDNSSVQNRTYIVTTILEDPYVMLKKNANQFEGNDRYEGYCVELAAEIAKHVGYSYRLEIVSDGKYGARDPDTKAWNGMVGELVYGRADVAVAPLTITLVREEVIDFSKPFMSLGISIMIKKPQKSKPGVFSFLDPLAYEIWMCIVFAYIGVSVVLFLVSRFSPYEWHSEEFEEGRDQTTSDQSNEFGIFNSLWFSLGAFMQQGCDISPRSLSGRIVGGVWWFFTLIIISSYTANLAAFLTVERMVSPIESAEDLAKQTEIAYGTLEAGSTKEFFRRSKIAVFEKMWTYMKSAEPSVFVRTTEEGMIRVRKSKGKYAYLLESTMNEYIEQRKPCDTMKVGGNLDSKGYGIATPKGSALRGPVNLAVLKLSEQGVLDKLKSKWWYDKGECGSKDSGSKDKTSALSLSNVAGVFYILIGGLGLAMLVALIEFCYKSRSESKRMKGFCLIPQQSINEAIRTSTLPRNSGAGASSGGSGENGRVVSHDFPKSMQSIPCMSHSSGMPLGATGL
T2 sequence (P42262 22-883 isoform P42262-2 limits assumed): as the sequence (P42262 22-883 isoform P42262-2 limits assumed) above

SMILES | inhibition of AMPA receptors (subunit GluA2/3) compared to decanoic acid [1] | inhibitory effect on AMPA receptors consisting of GluA1/2 subunits compared to decanoic acid [2] | reduction of AMPA-R generated current in comparison to the control [1] | reduction of AMPA-R generated current in comparison to decanoic acid [1] | reduction of AMPA-R generated current in comparison to 4-BCCA [1]
CCCCCC1CCC(CC(=O)O)CC1 (racemic) [Compound 4-PCEA, 2-(4-pentylcyclohexyl)ethanoic acid] | more potent inhibition | enhanced inhibitory effect | – | – | –
CCCCCc1ccc(CC(=O)O)cc1 [Compound 4-PPEA, 4-pentylphenylethanoic acid] | more potent inhibition | – | – | – | –
CC(C)CCCC1CCC(CC(=O)O)CC1 (stereo not shown) [compound 172, [4-(4-methylpentyl)cyclohexyl]acetic acid] | – | – | significant reduction | – | –
CC/C=C/C1CCC(C(=O)O)CC1 (stereo not shown) [compound 174, 4-[(1E)-but-1-en-1-yl]cyclohexanecarboxylic acid] | – | – | significant reduction | – | –
CCCOCC1CCC(CC(=O)O)CC1 (stereo not shown) [compound 175, 4-(propoxymethyl)cyclohexyl acetic acid] | – | – | significant reduction | – | –
CCC(C)CCC1CCC(CC(=O)O)CC1 (stereo not shown) [compound 176, [4-(3-methylpentyl)cyclohexyl]acetic acid] | – | – | significant reduction | significant reduction | significant reduction
CCOCC1CCC(C(=O)O)CC1 (stereo not shown) [compound 177, 4-(ethoxymethyl)cyclohexancarboxylic acid] | – | – | significant reduction | – | –
CCCCC1CCC(C(=O)O)NC1 (stereo not shown) [compound 178, 5-butylpiperidine-2-carboxylic acid] | – | – | significant reduction | – | –
CCNCC1CCC(CC(=O)O)CC1 (stereo not shown) [compound 179, {4-[(ethylamino)methyl]cyclohexyl}acetic acid] | – | – | significant reduction | – | –
CCCOC1CCC(C(=O)O)CC1 (stereo not shown) [compound 180, 4-propoxycyclohexanecarboxylic acid] | – | – | significant reduction | – | –
CC(C)CCC1CCC(C(=O)O)CC1 (stereo not shown) [compound 181, 4-(3-methylbutyl)cyclohexanecarboxylic acid] | – | – | significant reduction | significant reduction | significant reduction
CCCCC=C1CCC(CC(=O)O)CC1 (stereo not shown) [compound 182, (4-pentylidenecyclohexyl)acetic acid] | – | – | significant reduction | significant reduction | significant reduction
CCC(C)CC1CCC(C(=O)O)CC1 (stereo not shown) [compound 184, 4-(2-methylbutyl)cyclohexanecarboxylic acid] | – | – | significant reduction | significant reduction | significant reduction
CCCC(C)CC1CCC(CC(=O)O)CC1 (stereo not shown) [compound 185, [4-(2-methylpentyl)cyclohexyl]acetic acid] | – | – | significant reduction | significant reduction | significant reduction
